Results reported in PubChem BioAssay AID2387 (Broad Institute, 2010).
Calls of active or inactive are those of the source.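 How the source made its calls: active means fitted EC50 no more than tenfold above the highest tested concentration; inconclusive means flat fit with 30 to 70% signal loss, or poor fit; inactive means the rest.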

tested on: Candida albicans CaCi-2 growth (no fluconazole), Alamar Blue; experiment: C. albicans growth inhibition without fluconazole, dose response, counter-screen for fluconazole resistance reversal project, CaCi-2 strain, Alamar Blue fluorescence (AID 2387); conditions: C. albicans CaCi-2 (fluconazole-resistant clinical isolate) growth without fluconazole, 48 h

Compound	EC50
CN(C)S(=O)(=O)Oc1cccc(C(=O)Nc2cccc(Cl)c2)c1	> 15 µM (inactive)
CCCCc1c(O)nc(SCC(=O)Nc2cccc3ccccc23)n(-c2ccccc2OC)c1=O	> 16 µM (inactive)
C=CCNC(=S)Nc1sc2c(c1C(=O)OCC)CC(C)(CC)OC2 (stereo not given)	> 15 µM (inactive)
Cc1c(Cl)ccc2c1NC(=O)[C@]21N[C@@H](Cc2ccccc2)[C@H]2C(=O)N(c3ccc(F)cc3)C(=O)[C@H]21	> 16 µM (inactive)
O=C(N/N=C/c1c(O)ccc2ccccc12)c1cccc(C(F)(F)F)c1	1.42 µM
COCCn1c(=O)[nH]c(=O)c2cc(C(=O)c3cc(Cl)ccc3O)cnc21	> 16 µM (inactive)
CC(C)C(=O)NC(c1cccs1)c1cc([N+](=O)[O-])c2cccnc2c1O (stereo not given)	12.9 µM
O=[N+]([O-])c1cccc(-c2cc(-c3cc(Br)ccc3O)[nH]n2)c1	> 15 µM (inactive)
CN(C)c1cc(N/N=C/c2ccc(Cl)cc2)nc(N(C)C)n1	> 16 µM (inactive)
Cc1cc(C)cc(OCC(=O)NNC(=S)NC(=O)C2CC2)c1	> 15 µM (inactive)
CCN1/C(=C/c2sc(-c3ccccc3C)c[n+]2C)Sc2ccccc21	> 15 µM (inactive)
CN1CCN(C(c2ccc(C(F)(F)F)cc2)c2ccc3cccnc3c2O)CC1 (stereo not given)	8.31 µM
CCN(Cc1ccccc1)S(=O)(=O)c1ccc(C(=O)Nc2nnc(-c3ccccc3OC)o2)cc1	> 15 µM (inactive)
CN1/C(=C/C(=O)c2cccs2)Sc2ccccc21	> 15 µM (inactive)
Cc1ccc(C(=O)Nc2cccc(-c3cn4ccccc4n3)c2)cc1	> 16 µM (inactive)
Cc1cc(NC(c2ccc(Cl)cc2)c2ccc3cccnc3c2O)no1 (stereo not given)	3.53 µM
Cc1ccc2nc(N3C(=O)C(O)=C(C(=O)c4ccco4)C3c3ccc(C)o3)sc2c1 (stereo not given)	> 15 µM (inactive)
C=CCN(CC=C)Cc1c(O)ccc2c(=O)c(-c3ccccc3)coc12	> 15 µM (inactive)
CCN(CC)S(=O)(=O)c1cc(OC)ccc1N=Nc1ccc(O)c2ncccc12	6.91 µM
[O-][n+]1cccc2c(Br)cc(Br)c(O)c21	16.4 µM
COc1ccc(C(=O)NNC(=S)NC(=O)c2ccc(Cl)cc2)cc1	> 16 µM (inactive)
Oc1ccc(N=Nc2ccc3c(c2)OCCO3)c2cccnc12	3.65 µM
COc1ccc(-c2nnc(NC(=O)c3ccc(S(=O)(=O)N4CCc5ccccc5C4)cc3)o2)cc1	> 15 µM (inactive)
O=C(Nc1nnc(-c2ccncc2)o1)c1ccc2ccccc2c1	> 15 µM (inactive)
O=Nc1c(-c2cccc([N+](=O)[O-])c2)nc2ncccn12	5.3 µM

Compound	EC50
CCOc1ccc(NC(=O)c2cn(-c3ccc(OCC)cc3)c(=O)c3cc(OC)c(OC)cc23)cc1	> 16 µM (inactive)
COc1ccccc1NC1=C(N2CCCCC2)C(=O)c2ccccc2C1=O	> 16 µM (inactive)
O=C(NCc1ccc(F)cc1)C(c1ccccc1)N(CC1CCCO1)C(=O)Cn1nnc2ccccc21 (stereo not given)	> 15 µM (inactive)
Cc1ccc(S(=O)(=O)N(C)c2ccc(OCC(=O)Nc3nnc(C4CC4)s3)cc2)cc1	> 15 µM (inactive)
CCCOc1ccc(C(=O)NNC(=S)NC(=O)CC)cc1	> 15 µM (inactive)
CC(C)(C)c1ccc(Cc2n[nH]c(=S)[nH]c2=O)cc1	> 16 µM (inactive)
CC1=C(CC[C@@H](C)CO)OC2CC3C4CCC5CC(O)CCC5(C)C4CC(=O)C3(C)C12 (stereo not given in full)	> 15 µM (inactive)
Cc1nc2ccccc2cc1OCc1ccc(F)cc1	> 16 µM (inactive)
CC(=O)c1sc(NC(=O)CCS(=O)(=O)c2ccccc2)nc1C	> 15 µM (inactive)
Fc1cccc(-n2cc(-c3ccccc3)c3c(=S)nc[nH]c32)c1	> 15 µM (inactive)
Cc1cccc2sc(NNC(=O)c3cc(-c4cccs4)nc4ccccc34)nc12	> 16 µM (inactive)
CCCCC(=O)NC(c1ccc(N(CC)CC)cc1)c1ccc2cccnc2c1O (stereo not given)	8.6 µM
CCNc1nc(NC(C)C)nc(NC(C)(C)C)n1	> 16 µM (inactive)
CCOc1ccc(N=Nc2ccc(O)c3ncccc23)cc1	2.3 µM
O=c1c2cc(Br)ccc2nc(-c2cccc(C(F)(F)F)c2)n1O	14.3 µM
COc1ccc(N(CC(=O)Nc2ccccc2C(N)=O)S(=O)(=O)c2ccc(C)c([N+](=O)[O-])c2)cc1	> 16 µM (inactive)
c1ccc(CC2CCN(c3ncnc4sccc34)CC2)cc1	> 16 µM (inactive)
O=C(NCc1ccccc1)c1sc(=S)n2c1[nH]c(=O)c1ccccc12	> 15 µM (inactive)
C/C(=N\NC(=O)c1cc2ccccc2cc1O)c1ccccn1	9.98 µM
Cc1cc(C(=O)N/N=C/c2cc(Cl)cc([N+](=O)[O-])c2O)c2ccccc2n1	> 15 µM (inactive)
COc1ccc(C(=O)N2c3ccccc3C=CC2C#N)cc1 (stereo not given)	> 15 µM (inactive)
O=[N+]([O-])c1c(C(Cl)Cl)nn(-c2ccc(Cl)cc2)c1N1CCCCC1	> 16 µM (inactive)
O=[N+]([O-])c1ccc(O)c(P(=O)(c2ccccc2)c2ccccc2)c1	> 15 µM (inactive)
O=C(N/N=C/c1sc2ccccc2c1O)c1cccc2ccccc12	> 16 µM (inactive)
COc1ccc(-c2nnc(NC(=O)c3ccc(S(=O)(=O)N4CCCc5ccccc54)cc3)o2)cc1	13.3 µM

Compound	EC50
Oc1c(CN2CCN(c3ccccc3)CC2)cc(Br)c2cccnc12	2.11 µM
CCCC(=O)NC(c1ccccc1OC)c1ccc2cccnc2c1O (stereo not given)	> 16 µM (inactive)
O=C(CC(=O)c1cccc([N+](=O)[O-])c1)Nc1ccccc1Cl	> 16 µM (inactive)
Cc1ccc2nc(/C(C#N)=C\c3ccc(OC(=O)c4cccs4)cc3)[nH]c2c1	> 16 µM (inactive)
CCc1cc(-c2n[nH]c(=S)n2-c2ccccc2C)cs1	> 16 µM (inactive)
Cc1c(Cl)c([N+](=O)[O-])nn1Cc1ccc(C(=O)N/N=C\c2cc(Cl)ccc2O)o1	> 16 µM (inactive)
CCCCCCCNC(=O)COc1ccc2c(c1)C(=O)CC(C)(C)O2	> 16 µM (inactive)
COc1ccc(Cl)cc1C(Nc1cccnc1)c1ccc2cccnc2c1O (stereo not given)	11.8 µM
CCN(CC)S(=O)(=O)c1ccc(N/N=C/c2ccc(O)cc2O)nc1	> 16 µM (inactive)
CCOc1ccc(/C=C/C2=CC(C)(C)NC(=S)N2)cc1	> 15 µM (inactive)
CCN1/C(=C/c2ccc3cc(C)ccc3[n+]2CC)Sc2ccc3sccc3c21	1.75 µM
c1ccc2c(c1)OCC(CNc1ncnc3sccc13)O2 (stereo not given)	> 15 µM (inactive)
O=C(CCS(=O)(=O)c1ccc(F)cc1)Nc1nc(-c2ccncc2)cs1	> 15 µM (inactive)
O=c1ccc(N=Nc2ccccc2)ccc1O	3.88 µM
O=[N+]([O-])c1nn(-c2ccc(Cl)cc2)n(O)c1=NCc1cccnc1	> 15 µM (inactive)
CCOC(=O)c1c(-c2ccccc2Cl)cn2ccccc12	> 16 µM (inactive)
O=[N+]([O-])c1cc(O)c2ncccc2c1	12.3 µM
CC1CCC(C(C)C)C(OC(=O)Cn2c(-c3ccc(Br)cc3)[n+](C)c3ccccc32)C1 (stereo not given)	> 16 µM (inactive)
O=C(Nc1nnc(-c2ccco2)o1)c1cccc(Cl)c1	> 15 µM (inactive)
N#C/C(=C\c1ccc(N2CCOCC2)cc1)c1ccccc1	> 16 µM (inactive)
C/C(=N\NC(=O)c1cc(C2CC2)nc2ccccc12)c1ccc(O)cc1O	> 16 µM (inactive)
O=C(CNc1ccc2ccccc2c1)N/N=C/c1ccc([N+](=O)[O-])o1	> 16 µM (inactive)
CC(=O)Nc1ccc(Nc2c3ccccc3nc3ccccc23)cc1	> 15 µM (inactive)
CCCn1nnnc1NC(=O)c1ccc2ccccc2c1	> 15 µM (inactive)
O=C(CCc1ccccc1)NNC(=S)NC(=O)c1ccccc1	> 15 µM (inactive)

Compound	EC50
CCCC(=O)NC(c1ccc(N(C)C)cc1)c1ccc2cccnc2c1O (stereo not given)	> 16 µM (inactive)
Cc1oc2ccc(OC(=O)N(C)C)cc2c1C(=O)OC(C)C	> 16 µM (inactive)
O=C(N/N=C/c1ccccc1O)c1cccc(C(F)(F)F)c1	> 15 µM (inactive)
Cc1ccc(NC2=CC(=O)C(=O)c3ccccc32)cc1	> 15 µM (inactive)
Cc1ccc(NC(=O)c2ccccc2NS(=O)(=O)c2ccc(Cl)s2)cc1	> 15 µM (inactive)
C=CCOC(=O)c1sc(NC(=O)c2ccco2)nc1C	> 15 µM (inactive)
Oc1ccc(N=Nc2ccc3c(c2)OCCO3)c2ncccc12	3.31 µM
Cc1ccc(-n2nc(C)c3c(C)cc(=O)[nH]c32)cc1	> 15 µM (inactive)
CC/C(=N/NC(=O)c1ccccc1O)c1c(C)[nH]n(-c2ccccc2)c1=O	> 15 µM (inactive)
O=C1/C(=C/c2cccnc2)CCc2c1[nH]c1ccccc21	> 15 µM (inactive)
CCOc1ccccc1NC(=O)C(=O)N/N=C/c1cc(Br)ccc1O	> 16 µM (inactive)
CCN(CC)c1ccc(/C=N/NC(=O)c2cccc(S(=O)(=O)N3CCOCC3)c2)c(O)c1	> 16 µM (inactive)
COc1ccc(-n2nc(C(=O)NCC(=O)NCCC3=CCCCC3)c3ccccc3c2=O)c(OC)c1	> 15 µM (inactive)
Cc1ccc(NC(=O)c2noc(C(C)C)c2[N+](=O)[O-])cc1	> 16 µM (inactive)
[O-][N+]1=c2ccc(Nc3ccccc3)cc2=NC12CCCCC2	> 15 µM (inactive)
O=C(NNC1=C(C(=O)C(F)(F)F)CCC1)c1ccc(Cl)cc1	> 15 µM (inactive)
N#Cc1cc(C#N)c(N2CCN(c3cccc(Cl)n3)CC2)nc1N	> 15 µM (inactive)
CCCCOc1cccc(C2C(C(=O)c3ccc(C)o3)=C(O)C(=O)N2Cc2ccco2)c1 (stereo not given)	> 15 µM (inactive)
COc1cccc(/C=N/NC(=O)C(=O)Nc2ccccc2OC(F)(F)C(F)F)c1O	> 16 µM (inactive)
COc1cccc(-c2nc(NC(C)C)c3ccccc3n2)c1O	> 16 µM (inactive)
Cc1cccc(/C=C/C(=O)c2cc(Br)ccc(=O)c2O)c1	14.5 µM
CCOc1ccc(-c2ccc(NS(=O)(=O)c3ccc([N+](=O)[O-])cc3)cc2)nn1	> 15 µM (inactive)
COc1ccc(-n2cc(-c3ccc(C)cc3)[n+]3c2SCC3)cc1	> 15 µM (inactive)
O=c1[nH]c(=S)[nH]nc1Cc1ccc(Cl)c(Cl)c1	> 16 µM (inactive)
Oc1c(C(Nc2nc3ccccc3s2)c2ccco2)ccc2cccnc12 (stereo not given)	4.68 µM
